B1: Luc2: a firefly luciferase (protein, listed as Photinus pyralis)
chain: MEDAKNIKKGPAPFYPLEDGTAGEQLHKAMKRYALVPGTIAFTDAHIEVDITYAEYFEMSVRLAEAMKRYGLNTNHRIVVCSENSLQFFMPVLGALFIGVAVAPANDIYNERELLNSMGISQPTVVFVSKKGLQKILNVQKKLPIIQKIIIMDSKTDYQGFQSMYTFVTSHLPPGFNEYDFVPESFDRDKTIALIMNSSGSTGLPKGVALPHRTACVRFSHARDPIFGNQIIPDTAILSVVPFHHGFGMFTTLGYLICGFRVVLMYRFEEELFLRSLQDYKIQSALLVPTLFSFFAKSTLIDKYDLSNLHEIASGGAPLSKEVGEAVAKRFHLPGIRQGYGLTETTSAILITPEGDDKPGAVGKVVPFFEAKVVDLDTGKTLGVNQRGELCVRGPMIMSGYVNNPEATNALIDKDGWLHSGDIAYWDEDEHFFIVDRLKSLIKYKGYQVAPAELESILLQHPNIFDAGVAGLPDDDAGELPAAVVVLEHGKTMTEKEIVDYVASQVTTAKKLRGGVVFVDEVPKGLTGKLDARKIREILIKAKKGGKIAV

Tests used:
[1] = biological target: T1, OgLuc (Oplophorus gracilirostris, UniProt Q9GV45, A31E/A60K/A81I/F95Y/I117V/L99Q/M102K/N193R/P142E/Q151K/Q38R/Q45L/V71I/Y165I); experiment: LOPAC library inhibition screen; type: biochemical; settings: preliminary LOPAC screen with 9B8 variant, 20 μM substrate
T1 construct: 10 μL of purified 9B8, L27V or firefly luciferase (Luc2) enzyme; made in house
Procedure: To determine the susceptibility of the OgLuc variants to off-target interactions, the activity of the 9B8 and L27V variants was screened against a LOPAC (library of pharmacologically active compounds) library. A LOPAC 1280 library (Sigma) was prepared by diluting the compounds to 1 mM in DMSO. On the day of the assay, the compounds were diluted to 20 μM in 1×PBS, and 10 μL transferred to a 96-well, white plate. To each well, 10 μL of purified 9B8, L27V or firefly luciferase (Luc2) enzyme diluted 10^−4 in Glo Lysis Buffer (Promega Corp.) was added and incubated at room temperature for 2 min. […] For assaying firefly luciferase, the BRIGHT-GLO™ Assay reagent (Promega Corp.) was used according to the manufacturer's protocol. As a negative control, 8 wells of each plate contained 1×PBS+2% glycerol. As a positive control, 8 wells of each plate contained 2 mM Suramin in 2% DMSO or 2 mM luciferase inhibitor 1 in 2% DMSO (Calbiochem).

[2] = tested on: HEK293 cells; experiment: Luminescence of luciferases in lysed HEK293 cells (codon optimization); type: cell-based, human
Procedure: Codon optimized versions of IV (“IV opt” (SEQ ID NO: 22) and “IV optB” (SEQ ID NO: 23)) and 9B8 (“9B8 opt” (SEQ ID NO: 24) and “9B8 optB” (SEQ ID NO: 25)) were generated and cloned into pF4Ag by methods known in the art. HEK293 cells were plated in 96-well plates at 15,000 cells/well and grown overnight at 37° C. The following day, the cells were transiently transfected in 6 well replicates using TRANSIT®-LT1 Transfection Reagent (Minis Bio) with 100 ng of plasmid DNA encoding the codon optimized versions in pF4Ag and grown overnight at 37° C. HEK293 cells were also transfected with either pGL4.13 (Luc2/SV40) (Paguio et al., “pGL4 Vectors: A New Generation of Luciferase Reporter Vectors” Promega Notes, 89:7-10 (2005)) or pGL4.73 (hRL/SV40) (Id.) to normalize for differences in transfection efficiency. Ten ng/transfection or 10% of the total DNA transfected was used.
The OgLuc variants had higher luminescence compared to Luc2 and hRL.

T1 sequence (Q9GV45 other isoform, or with tags, fused parts or gaps with the stated changes): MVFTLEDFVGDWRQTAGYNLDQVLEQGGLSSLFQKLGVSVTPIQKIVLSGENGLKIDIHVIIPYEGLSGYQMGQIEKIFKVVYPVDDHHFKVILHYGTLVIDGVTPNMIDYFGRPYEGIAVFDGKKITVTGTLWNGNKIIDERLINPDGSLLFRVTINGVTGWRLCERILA

Row | Molecule | inhibition of OgLuc [1] | luminescence relative to hRL [2]
1 | Cc1ccc(C(=O)Nc2ccc(S(=O)(=O)O)c3cc(S(=O)(=O)O)cc(S(=O)(=O)O)c23)cc1NC(=O)c1cccc(NC(=O)Nc2cccc(C(=O)Nc3cc(C(=O)Nc4ccc(S(=O)(=O)O)c5cc(S(=O)(=O)O)cc(S(=O)(=O)O)c45)ccc3C)c2)c1 [Suramin] | inhibitor of OgLuc | –
2 | B1 | – | approximately 14 fold
